The values below come from patent US9307765B2, “Selective weed control using D-napropamide” (UPL Limited, priority 2013, dated 2016).

What all share (format): in vivo
Assay [1] relates to Senecio vulgaris. In words: Field trial in winter oilseed rape, pre-emergence, % control. As for the experimental part: (§1) Field trials were conducted on various moncotyledonous weeds and dicotyledonous weeds and the effect of D-isomer of Napropamide was studied to understand the selective and effective control of dicotyledonous weeds over monocotyledonous weeds. The effect of D-isomer of Napropamide in comparison to racemic napropramide and untreated was studied, which is concluded hereinbelow:
(§2) Several small plot replicated trials were carried out to evaluate and/or compare the efficacy of D-Napropamide against a range of indicated annual broadleaved and grass weed species in the indicated crops. No problems were encountered during mixing or application of any of the product formulations or tank mixtures under test.
(§3) In each of the reported data, the homogeneity of variance was tested by Bartlett's test. Wherever this test indicated no homogeneity of variance, the transformed values were used for analysis of variance. Assessment data was then analyzed using a two-way analysis of variance (ANOVA) on untransformed and transformed data. The probability of no significant differences occurring between treatment means was calculated as the F probability value (p(F)). A mean comparison test was only performed and reported when the treatment of F that was calculated during analysis of variance was significant at the observed significance level specified for the mean comparison test. Where the data was transformed, treatment means in the reports were presented in their detransformed state, with the appropriate letter test and mean descriptions (LSD and standard deviation) derived from the transformed ANOVA.
(§4) Trials were conducted to evaluate the selectivity and efficacy of D-isomer of Napropamide when applied pre-emergence to oilseed rape crop. The % control of weed was assessed at regular intervals.

Assay [2] concerns Veronica persica. The assay is described as above. As for the experimental part:
as §1, §2, §3, §4

For assay [3], the system named is Fallopia convolvulus. The description is as above. As to the method:
as §1, §2, §3, §4

Assay [4] concerns Senecio vulgaris. In words: Field trial on strawberries, pre-emergence, visual % control. As for the experimental part: as §1, §2, §3
(§5) Trial was carried out on strawberries to evaluate the efficacy and selectivity of D-Napropamide and equivalent rate of Devrinol (Napropramide) applied pre-emergence. […]

The subject of assay [5] is Papaver rhoeas. The assay is described as above. As for the experimental part:
as §1, §2, §3, §5

Assay [6] has as its system Ranunculus repens. The description is as above. As to the method:
as §1, §2, §3
Trial was carried out on strawberries to evaluate the efficacy and selectivity of D-Napropamide and equivalent rate of Devrinol (Napropramide) applied pre-emergence. […] The percentage control of D-isomer of Napropamide and Devrinol was assessed in comparison to the untreated after 224 days after application.

The mark [7] stands for this setting: 3.0 L/Ha of 450 g/L formulation.
[8] abbreviates: 4.2 L/Ha of 450 g/L formulation.
The mark [9] stands for this setting: 8.5 L/Ha of 450 g/L formulation.

Several values for one entry are separate records, joined by “and”; a condition that tells them apart may be missing. Equal values may be shown once.

Regarding `CCN(CC)C(=O)[C@@H](C)Oc1cccc2ccccc12` [D-Napropamide, D-(−)-N,N-diethyl-2-(α-naphthoxy)propionamide], the “Percentage Control at 214 DAA” value in assay [1] (450 g/L @ 1.6 L/Ha, listed as D Napropamide) is 82.15% and 94.72%. In addition, the “Conclusion: efficacy in control vis-à-vis Napropamide at an equivalent dosage” value in assay [1] (Senecio vulgaris, dicot) is on record as “superior efficacy”; in assay [2] (Veronica persica, dicot) it was “superior efficacy”; in assay [3] (Fallopia convolvulus, dicot), “superior efficacy”; in assay [4] (Senecio vulgaris) it was “surprising efficacy”; in assay [5] (Papaver rhoeas) it was “surprising efficacy”; in assay [6] (Ranunculus repens) it was “surprising efficacy”. The “Percentage Control at 63 DAA” value in assay [2] (450 g/L @ 1.4 L/Ha), in assay [2] (450 g/L @ 1.6 L/Ha), in assay [3] (450 g/L @ 1.6 L/Ha) and in assay [3] (450 g/L @ 2.0 L/Ha) was 100.00% in each case. The “Percentage Control at 70 DAA” value in assay [4] (setting [7]) was 75.0%; in assay [4] (setting [8]) it was 50.0%; in assay [4] (setting [9]), 75.0%; in assay [5] (setting [7]), 71.7%; in assay [5] (setting [8]), 95.0%; in assay [5] (setting [9]), 97.5%. Besides, the “Percentage Control at 224 DAA” value in assay [6] (setting [7]) is 66.7%; in assay [6] (setting [8]), 100%; in assay [6] (setting [9]) it was 100%.
